Converted amounts (≈) assume the structure as drawn.
Assays:
Format in all cases: cell-based
[1] = tested on: Methicillin resistant Staphylococcus aureus (ATCC 33591); assay: MIC susceptibility test, microdilution with MTT readout; conditions: Staphylococcus aureus ATCC3359, Methicillin resistance; for MIC: ATCC 3359 / ATCC 33591 / MRSA, read-out: MIC MRSA
Summary of the method: (§1)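 Broth microdilution in cation-adjusted Mueller-Hinton broth, 12-step two-fold series from 5 μg/mL to […], mixed 1:1 with 10^6 CFU/mL cell suspension and incubated 24 h at 37 °C. MTT (1 mg/mL solution) is then added for 30 min (S. aureus, MRSA) or 2 h (E. faecalis strains). MIC = lowest concentration inhibiting growth.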

[2] = tested on: Bacillus cereus (ATCC 11778); assay: as above; conditions: for MIC: Bacillus cereus, ATCC11778, read-out: MIC BC; for MIC BC: Bacillus ceres ATCC11778
Summary of the method: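 Bacillus cereus ATCC® 11778 susceptibility was measured by broth microdilution in 96-well microplates using Cation Adjusted Mueller-Hinton broth. Samples were diluted two-fold from 5 μg/mL over 12 steps. Each well combined 100 μL of cell suspension (10^6 CFU/mL) with 100 μL of antibiotic solution and was incubated at 37° C. for 24 h. Then 50 μL of MTT (1 mg/mL) was added for 30 min, and MIC (μg/mL) was read as the lowest concentration inhibiting growth.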

[3] = tested on: Enterococcus faecalis (ATCC 29212); assay: as above; conditions: Enterococcus faecalis ATCC29212; for MIC: read-out: MIC EF
Summary of the method: as §1

[4] = tested on: Staphylococcus aureus (ATCC 29213); assay: as above; conditions: Staphylococcus aureus ATCC29213; for MIC: read-out: MIC SA
Summary of the method: as §1

[5] = tested on: Enterococcus faecium CL5137, VanA; assay: MIC susceptibility test; conditions: Enterococcus faecium CL5137, VanA; for MIC: read-out: MIC CL5137
[6] = tested on: gentamicin, streptmycin, vancomycin resistant Enterococcus faecalis (ATCC 51299); assay: microbe, parasite or virus in culture; conditions: for MIC: Enterococcus faecalis, ATCC51299, read-out: MIC VREF; for MIC VREF: Enterococcus faecalis ATCC51299, vancomycin resistance
Summary of the method: as §1

[7] = tested on: Enterococcus faecalis CL5244, VanB; assay: MIC susceptibility test; conditions: Enterococcus faecalis CL5244, VanB; for MIC: read-out: MIC CL5244
Summary of the method: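 MTT-based broth microdilution in cation-adjusted Mueller-Hinton broth; two-fold 12-step dilutions […], inoculum 10^6 CFU/mL, 37° C for 24 h.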

SMILES | MIC [1] [µg/mL] | MIC [2] [µg/mL] | MIC [3] [µg/mL] | MIC [4] [µg/mL] | MIC [5] [µg/mL] | MIC [6] [µg/mL] | MIC [7] [µg/mL] | MIC MRSA [1] [µg/mL] | MIC BC [2] [µg/mL] | MIC EF [3] [µg/mL] | MIC SA [4] [µg/mL] | MIC CL5137 [5] | MIC VREF [6] [µg/mL] | MIC CL5244 [7]
CN[C@@H](CC(C)C)C(=O)N[C@H]1C(=O)N[C@@H](CC(N)=O)C(=O)N[C@H]2C(=O)NC3C(=O)N[C@H](C(=O)N[C@@H](C(=O)O)c4cc(O)cc(O)c4-c4cc3ccc4O)[C@H](O)c3ccc(c(Cl)c3)Oc3cc2cc(c3OC2OC(CSc3nc(C)cc(O)n3)C(O)C(O)C2OC2CC(C)(NCc3ccc(-c4ccc(Cl)cc4)cc3)C(O)C(C)O2)Oc2ccc(cc2Cl)[C@H]1O (some centres unmarked) [LXXXV, N-4-(4-Chlorophenyl)benzylvancosamine-glucose-C6-2-thio-4-hydroxy-6-methylpyrimidine Vancomycin] | 1.3 (≈ 0.733 µM) | 1.3 (≈ 0.733 µM) | 0.32 (≈ 0.18 µM) | 1.9 (≈ 1.07 µM) | 6.3 (≈ 3.55 µM) | 0.32 (≈ 0.18 µM) | 0.4 (≈ 0.225 µM) |  |  |  |  |  |  | 
CN[C@@H](CC(C)C)C(=O)N[C@H]1C(=O)N[C@@H](CC(N)=O)C(=O)N[C@H]2C(=O)NC3C(=O)N[C@H](C(=O)N[C@@H](C(=O)O)c4cc(O)cc(O)c4-c4cc3ccc4O)[C@H](O)c3ccc(c(Cl)c3)Oc3cc2cc(c3OC2OC(CSc3nnc(C)c(O)n3)C(O)C(O)C2OC2CC(C)(NCc3ccc(-c4ccc(Cl)cc4)cc3)C(O)C(C)O2)Oc2ccc(cc2Cl)[C@H]1O (some centres unmarked) [LXXXVI, N-4-(4-Chlorophenyl)benzylvancosamine-glucose-C6-2-thio-6-azathymine Vancomycin] | 1 (≈ 0.563 µM) | 0.32 (≈ 0.18 µM) | 0.12 (≈ 0.0676 µM) | 1 (≈ 0.563 µM) | 3.2 (≈ 1.8 µM) | 0.16 (≈ 0.0901 µM) | 0.4 (≈ 0.225 µM) |  |  |  |  |  |  | 
CN[C@@H](CC(C)C)C(=O)N[C@H]1C(=O)N[C@@H](CC(N)=O)C(=O)N[C@H]2C(=O)NC3C(=O)N[C@H](C(=O)N[C@@H](C(=O)O)c4cc(O)cc(O)c4-c4cc3ccc4O)[C@H](O)c3ccc(c(Cl)c3)Oc3cc2cc(c3OC2OC(CSc3nc(-c4ccccc4)c(-c4ccccc4)o3)C(O)C(O)C2OC2CC(C)(NCc3ccc(-c4ccc(Cl)cc4)cc3)C(O)C(C)O2)Oc2ccc(cc2Cl)[C@H]1O (some centres unmarked) [LXXXVII, N-4-(4-Chlorophenyl)benzylvancosamine-glucose-C6-2-thio-4,5-diphenyloxazole Vancomycin] | > 5 | > 5 | 5 (≈ 2.65 µM) | > 5 | 50 (≈ 26.5 µM) | 5 (≈ 2.65 µM) | 10 (≈ 5.3 µM) |  |  |  |  |  |  | 
CN[C@@H](CC(C)C)C(=O)N[C@H]1C(=O)N[C@@H](CC(N)=O)C(=O)N[C@H]2C(=O)NC3C(=O)N[C@H](C(=O)N[C@@H](C(=O)O)c4cc(O)cc(O)c4-c4cc3ccc4O)[C@H](O)c3ccc(c(Cl)c3)Oc3cc2cc(c3OC2OC(CSc3nccc(C(F)(F)F)n3)C(O)C(O)C2OC2CC(C)(N)C(O)C(C)O2)Oc2ccc(cc2Cl)[C@H]1O (some centres unmarked) [LX] | 5 (≈ 3.1 µM) | 5 (≈ 3.1 µM) | 2.5 (≈ 1.55 µM) | 5 (≈ 3.1 µM) | > 50 | 2.5 (≈ 1.55 µM) | > 50 |  |  |  |  |  |  | 
CNC(CC(C)C)C(=O)NC1C(=O)NC(CC(N)=O)C(=O)NC2C(=O)NC3C(=O)NC(C(=O)NC(C(=O)O)c4cc(O)cc(O)c4-c4cc3ccc4O)C(O)c3ccc(c(Cl)c3)Oc3cc2cc(c3OC2OC(CO)C(O)C(O)C2OC2CC(C)(NCc3ccc(-c4ccc(Cl)cc4)cc3)C(O)C(C)O2)Oc2ccc(cc2Cl)C1O (centres unmarked) [N-4-(4-chlorophenyl)benzyl vancomycin, reference compound] |  |  |  |  |  |  |  | 0.08 (≈ 0.0485 µM) | 0.08 (≈ 0.0485 µM) | 0.08 (≈ 0.0485 µM) | 0.16 (≈ 0.097 µM) | 13 µg/mL (≈ 7.88 µM) | 0.08 (≈ 0.0485 µM) | 0.4 µg/mL (≈ 0.242 µM)
CCCCCCCCCCNC1(C)CC(OC2C(Oc3c4cc5cc3Oc3ccc(cc3Cl)C(O)C3NC(=O)C(NC(=O)C5NC(=O)C(CC(N)=O)NC(=O)C(NC(=O)C(CC(C)C)NC)C(O)c5ccc(c(Cl)c5)O4)c4ccc(O)c(c4)-c4c(O)cc(O)cc4C(C(=O)O)NC3=O)OC(CO)C(O)C2O)OC(C)C1O (centres unmarked) [N-decyl vancosamine vancomycin, reference compound] |  |  |  |  |  |  |  | 0.48 (≈ 0.302 µM) | 0.32 (≈ 0.201 µM) | 0.16 (≈ 0.101 µM) | 0.63 (≈ 0.396 µM) | 25 µg/mL (≈ 15.7 µM) | 0.32 (≈ 0.201 µM) | 3.2 µg/mL (≈ 2.01 µM)
CCCCCCCCCCNC1(C)CC(OC2C(Oc3c4cc5cc3Oc3ccc(cc3Cl)C(O)C3NC(=O)C(NC(=O)C5NC(=O)C(CC(N)=O)NC(=O)C(NC(=O)C(CC(C)C)NC)C(O)c5ccc(c(Cl)c5)O4)c4ccc(O)c(c4)-c4c(O)cc(O)cc4C(C(=O)O)NC3=O)OC(CI)C(O)C2O)OC(C)C1O (centres unmarked) [Vancosamine-N-decyl-glucose-C6-iodo-vancomycin] |  |  |  |  |  |  |  | 0.32 (≈ 0.188 µM) | 1.0 (≈ 0.588 µM) | 0.08 (≈ 0.0471 µM) | 1.3 (≈ 0.765 µM) | 6.3 µg/mL (≈ 3.71 µM) | 0.12 (≈ 0.0706 µM) | 0.4< μg/mL
CN[C@@H](CC(C)C)C(=O)N[C@H]1C(=O)N[C@@H](CC(N)=O)C(=O)N[C@H]2C(=O)NC3C(=O)N[C@H](C(=O)N[C@@H](C(=O)O)c4cc(O)cc(O)c4-c4cc3ccc4O)[C@H](O)c3ccc(c(Cl)c3)Oc3cc2cc(c3OC2OC(CNC(=O)C(F)(F)F)C(O)C(O)C2OC2CC(C)(N)C(O)C(C)O2)Oc2ccc(cc2Cl)[C@H]1O (some centres unmarked) [XL, Glucose-C6-trifluoroacetamide Vancomycin] | 1 (≈ 0.648 µM) | 1.3 (≈ 0.842 µM) | 1.3 (≈ 0.842 µM) | 0.48 (≈ 0.311 µM) | > 50 | 5 (≈ 3.24 µM) | 25 (≈ 16.2 µM) |  |  |  |  |  |  | 
CNC(CC(C)C)C(=O)NC1C(=O)NC(CC(N)=O)C(=O)NC2C(=O)NC3C(=O)NC(C(=O)NC(C(=O)O)c4cc(O)cc(O)c4-c4cc3ccc4O)C(O)c3ccc(c(Cl)c3)Oc3cc2cc(c3OC2OC(COS(=O)(=O)c3c(C)cc(C)cc3C)C(O)C(O)C2OC2CC(C)(N)C(O)C(C)O2)Oc2ccc(cc2Cl)C1O (centres unmarked) [XLI, Glucose-C6-mesitylenesulfonyl Vancomycin] |  |  |  |  |  |  |  | 1.3 (≈ 0.797 µM) | 1.3 (≈ 0.797 µM) | 1.3 (≈ 0.797 µM) | 0.63 (≈ 0.386 µM) | 50< μg/mL | 1.3 (≈ 0.797 µM) | 6.3 µg/mL (≈ 3.86 µM)
CN[C@@H](CC(C)C)C(=O)N[C@H]1C(=O)N[C@@H](CC(N)=O)C(=O)N[C@H]2C(=O)NC3C(=O)N[C@H](C(=O)N[C@@H](C(=O)O)c4cc(O)cc(O)c4-c4cc3ccc4O)[C@H](O)c3ccc(c(Cl)c3)Oc3cc2cc(c3OC2OC(COS(=O)(=O)c3c(C)cc(C)cc3C)C(O)C(O)C2OC2CC(C)(NCc3ccc(-c4ccc(Cl)cc4)cc3)C(O)C(C)O2)Oc2ccc(cc2Cl)[C@H]1O (some centres unmarked) [XLII, N-4-(4-Chlorophenyl)benzylvancosamine-glucose-C6-2-mesitylenesulfonated Vancomycin] | > 5 | 1.9 (≈ 1.04 µM) | 1 (≈ 0.546 µM) | > 5 | 6.3 (≈ 3.44 µM) | 1.9 (≈ 1.04 µM) | 0.8 (≈ 0.437 µM) |  |  |  |  |  |  | 
CN[C@@H](CC(C)C)C(=O)N[C@H]1C(=O)N[C@@H](CC(N)=O)C(=O)N[C@H]2C(=O)NC3C(=O)N[C@H](C(=O)N[C@@H](C(=O)O)c4cc(O)cc(O)c4-c4cc3ccc4O)[C@H](O)c3ccc(c(Cl)c3)Oc3cc2cc(c3OC2OC(CNN)C(O)C(O)C2OC2CC(C)(N)C(O)C(C)O2)Oc2ccc(cc2Cl)[C@H]1O (some centres unmarked) [XLIV, Glucose-C6-hydrazine Vancomycin] | 1.3 (≈ 0.888 µM) | 1.3 (≈ 0.888 µM) | 1.3 (≈ 0.888 µM) | 0.63 (≈ 0.431 µM) | > 50 | 2.5 (≈ 1.71 µM) | 50 (≈ 34.2 µM) |  |  |  |  |  |  | 
